{"source": "ChEMBL document CHEMBL3091302", "about": "“Kadcotriones A-C: tricyclic triterpenoids from Kadsura coccinea” (J Nat Prod, 2013)", "key": {"[1]": {"tested_on": "Human immunodeficiency virus 1", "experiment": "Antiviral activity against HIV1 3B infected in human C8166 cells assessed as inhibition of viral-induced cytopathogenicity by syncytium formation assay", "assay_type": "functional, organism-based", "conditions": "Human immunodeficiency virus 1, 3B"}, "MCF7": {"tested_on": "MCF7", "experiment": "Cytotoxicity against human MCF7 cells after 48 hrs by MTT assay", "assay_type": "functional, cell-based", "conditions": "MCF7, 48 h"}, "SMMC-7721": {"tested_on": "SMMC-7721", "experiment": "Cytotoxicity against human SMMC7721 cells after 48 hrs by MTT assay", "assay_type": "functional, cell-based", "conditions": "SMMC-7721, 48 h"}, "SW480": {"tested_on": "SW480", "experiment": "Cytotoxicity against human SW480 cells after 48 hrs by MTT assay", "assay_type": "functional, cell-based", "conditions": "SW480, 48 h"}, "A549": {"tested_on": "A549", "experiment": "Cytotoxicity against human A549 cells after 48 hrs by MTT assay", "assay_type": "functional, cell-based", "conditions": "A549, 48 h"}}}
{"smiles": "Cc1cn([C@H]2C[C@H](N=[N+]=[N-])[C@@H](CO)O2)c(=O)[nH]c1=O", "note": "[ZIDOVUDINE]", "values": [{"measurement": "EC50", "setting": "[1]", "result": 0.02, "unit": "µM"}]}
{"smiles": "C/C(=C\\CC[C@@H](C)[C@H]1CC[C@@]2(C)[C@@H]3CC[C@H]4C(C)(C)C(=O)CC[C@]4(C)C3=C[C@@H](O)[C@]12C)C(=O)O", "values": [{"measurement": "IC50", "setting": "MCF7", "result": "> 40", "unit": "µM"}, {"measurement": "IC50", "setting": "SMMC-7721", "result": "> 40", "unit": "µM"}, {"measurement": "IC50", "setting": "SW480", "result": "> 40", "unit": "µM"}, {"measurement": "EC50", "setting": "[1]", "result": 54.8, "unit": "µM"}, {"measurement": "IC50", "setting": "A549", "result": "> 40", "unit": "µM"}]}
{"smiles": "CC1=C[C@]2(O)[C@@H](CC[C@H]3C(C)(C)C(=O)CC[C@@]32C)[C@@](C)(CCC(=O)[C@H](C)CC/C=C(\\C)C(=O)O)C1=O", "values": [{"measurement": "IC50", "setting": "MCF7", "result": "> 40", "unit": "µM"}, {"measurement": "IC50", "setting": "SMMC-7721", "result": "> 40", "unit": "µM"}, {"measurement": "IC50", "setting": "SW480", "result": "> 40", "unit": "µM"}, {"measurement": "IC50", "setting": "A549", "result": "> 40", "unit": "µM"}]}
{"smiles": "C/C(=C\\CC[C@@H](C)C(=O)CC[C@]1(C)C(=O)C=C2[C@H]1CC[C@H]1C(C)(C)C(=O)CC[C@]21C)C(=O)O", "values": [{"measurement": "IC50", "setting": "MCF7", "result": "> 40", "unit": "µM"}, {"measurement": "IC50", "setting": "SMMC-7721", "result": "> 40", "unit": "µM"}, {"measurement": "IC50", "setting": "SW480", "result": "> 40", "unit": "µM"}, {"measurement": "EC50", "setting": "[1]", "result": 30.3, "unit": "µM"}, {"measurement": "IC50", "setting": "A549", "result": "> 40", "unit": "µM"}]}
